Data as given in US11453697B1, “Cyclic di-nucleotide compounds as sting agonists” (Merck Sharp & Dohme Corp., priority 2015, dated 2022).

The molecules below were run on IFN-β secretion in THP1 cells (assay: IFN-β secretion in THP1 cell culture (5 h)). Conditions: not given.
Assay type: cell-based, human
Method: The ability of compounds to stimulate the secretion of interferon-beta from THP1 cells was measured using a human IFN-β AlphaLISA kit (Perkin Elmer, Cat. No. AL265F). The basic protocol is as follows:
The cell viability and count was ascertained using a Beckman Coulter V-Cell XR cell counter. The cells suspension was centrifuged at 200×g for 5 min at RT. […] Subsequent liquid transfers were performed using either a Matrix electronic multichannel pipette or an Agilent Bravo Automated Liquid Handling Platform.
The assay was started by dispensing 40 μL of the previously prepared cell suspension into the wells of the plate containing compounds. After 5 h incubation at 37° C., 5% CO2 in a humidified atmosphere, the plate of cells and compounds was centrifuged at 200×g for 5 min at RT. […] To these supernatant-containing wells was added 10 μL of 5× Anti-Analyte Acceptor beads (50 μg/mL of AlphaLISA HiBlock Buffer) and incubated for 30 min at RT while shaking on an orbital plate shaker. To each well was added 10 μL of 5× Biotinylated Antibody Anti-analyte (5 nM in AlphaLISA HiBlock Buffer) and incubated on an orbital plate shaker for 60 min at RT or overnight at 4° C. To each well was added 25 μL of 2× SA-Donor beads (80 μg/mL in AlphaLISA HiBlock Buffer) and incubated for 30-45 min at RT in the dark while shaking on an orbital plate shaker. The plate was then read on a Perkin Elmer Envision (λex=680 nm, λem=[…]). The percent effect of the AlphaLISA signal at each compound concentration was calculated based on 30 uM cGAMP positive controls and 0.3% DMSO negative controls. The plot of percent effect versus the log of compound concentration was fit with a 4-parameter concentration response equation to calculate EC50 values.
Compounds of the disclosure were evaluated for IFN-β secretion in THP1 cell culture as described above.

SMILES | % Effect at 30 μM relative to 2′3′-cGAMP [%]
Nc1nc2c(ncn2[C@@H]2O[C@@H]3COP(=O)(S)O[C@H]4[C@H](F)[C@H](n5cnc6c(N)ncnc65)O[C@@H]4COP(=O)(S)O[C@@H]2[C@H]3F)c(=O)[nH]1 (single isomer, unassigned) [Example 145] | 141
Nc1nc2c(ncn2[C@@H]2O[C@@H]3COP(=O)(O)OC4C(F)[C@H](n5cnc6c(N)ncnc65)O[C@@H]4COP(=O)(O)OC2C3O)c(=O)[nH]1 (stereo in doubt) [Example 2, (5R,7R,8R,12aR,14R,15R,15aR,16R)-7-(2-amino-6-oxo-1,6-dihydro-9H-purin-9-yl)-14-(6-amino-9H-purin-9-yl)-15-fluoro-16-hydroxyoctahydro-12H-5,8-methanofuro[3,2-l] [1,3,6,9,11,2,10]pentaoxadiphosphacyclotetradecine-2,10-diolate 2,10-dioxide] | 148
Nc1nc2c(ncn2[C@@H]2O[C@@H]3COP(=O)(O)OC4C(O)[C@H](n5cnc6c(N)ncnc65)O[C@@H]4COP(=O)(O)OC2C3F)c(=O)[nH]1 (stereo in doubt) [Example 5, (5R,7R,8S,12aR,14R,15R,15aS,16R)-7-(2-amino-6-oxo-1,6-dihydro-9H-purin-9-yl)-14-(6-amino-9H-purin-9-yl)-16-fluoro-15-hydroxyoctahydro-12H-5,8-methanofuro[3,2-l] [1,3,6,9,11,2,10]pentaoxadiphosphacyclotetradecine-2,10-diolate 2,10-dioxide] | 152

Same assay, conditions: IFN-β secretion in THP1 cell culture, 5 h; compound at 30 μM; percent activation relative to 2′3′-cGAMP

SMILES | % Effect at 30 μM relative to 2′3′-cGAMP [%]
Nc1nc2c(ncn2[C@@H]2O[C@@H]3COP(=O)(S)OC4[C@@H](COP(=O)(S)O[C@H]2C3O)O[C@@H](n2cnc3c(N)ncnc32)[C@H]4F)c(=O)[nH]1 (single isomer, unassigned) [Example 82] | 111
Nc1nc2c(ncn2[C@@H]2O[C@@H]3COP(=O)(S)OC4[C@@H](COP(=O)(S)O[C@H]2C3O)O[C@@H](n2cnc3c(N)ncnc32)[C@H]4F)c(=O)[nH]1 (single isomer, unassigned) [Example 83] | 133
Nc1nc2c(ncn2[C@@H]2O[C@@H]3COP(=O)(S)OC4C(O)[C@H](n5cnc6c(N)ncnc65)O[C@@H]4COP(=O)(S)OC2C3)c(=O)[nH]1 (single isomer, unassigned) [Example 87] | 99
Nc1nc2c(ncn2[C@@H]2O[C@@H]3COP(=O)(S)OC4C(O)[C@H](n5cnc6c(N)ncnc65)O[C@@H]4COP(=O)(S)OC2C3)c(=O)[nH]1 (single isomer, unassigned) [Example 88] | 54
Nc1nc2c(ncn2[C@@H]2O[C@@H]3CO[P@@](=O)(S)OC4[C@@H](CO[P@@](=O)(S)O[C@H]2C3O)O[C@@H](n2cnc3c(N)ncnc32)[C@H]4F)c(=O)[nH]1 (single isomer, unassigned) [Example 89] | 119
Nc1nc2c(ncn2[C@@H]2O[C@@H]3COP(=O)(S)OC4[C@@H](COP(=O)(S)OC2C3O)O[C@@H](n2cnc3c(N)ncnc32)[C@H]4F)c(=O)[nH]1 (single isomer, unassigned) [Example 90] | 117
Nc1nc2c(ncn2[C@@H]2O[C@@H]3COP(=O)(S)OC4[C@@H](COP(=O)(S)OC2C3O)O[C@@H](n2cnc3c(N)ncnc32)[C@H]4F)c(=O)[nH]1 (single isomer, unassigned) [Example 91] | 106
Nc1nc2c(ncn2[C@@H]2O[C@@H]3COP(=O)(S)OC4[C@@H](COP(=O)(S)OC2C3O)O[C@@H](n2cnc3c(N)ncnc32)[C@H]4F)c(=O)[nH]1 (single isomer, unassigned) [Example 92] | 62
Nc1nc2c(ncn2[C@@H]2O[C@@H]3COP(=O)(S)OC4C5OC[C@]4(COP(=O)(S)OC2C3O)O[C@H]5n2cnc3c(N)ncnc32)c(=O)[nH]1 (single isomer, unassigned) [Example 94] | 138
Nc1nc2c(ncn2[C@@H]2O[C@@H]3COP(=O)(S)OC4C5OC[C@]4(COP(=O)(S)OC2C3O)O[C@H]5n2cnc3c(N)ncnc32)c(=O)[nH]1 (single isomer, unassigned) [Example 95] | 118
Nc1nc2c(ncn2[C@@H]2O[C@@H]3CO[P@@](=O)(S)O[C@H]4[C@H](F)[C@H](n5cnc6c(N)ncnc65)O[C@@H]4CO[P@@](=O)(S)O[C@@H]2[C@H]3F)c(=O)[nH]1 (single isomer, unassigned) [Example 144] | 114
Nc1nc2c(ncn2[C@@H]2O[C@@H]3COP(=O)(S)O[C@H]4[C@H](F)[C@H](n5cnc6c(N)ncnc65)O[C@@H]4COP(=O)(S)O[C@@H]2[C@H]3F)c(=O)[nH]1 (single isomer, unassigned) [Example 146] | 59
Nc1nc2c(ncn2[C@@H]2O[C@@H]3COP(O)(=S)O[C@H]4[C@H](F)[C@H](n5cnc6c(N)ncnc65)O[C@@H]4COP(O)(=S)O[C@@H]2[C@@H]3F)c(=O)[nH]1 (single isomer, unassigned) [Example 244] | 96
Nc1nc2c(ncn2[C@@H]2O[C@@H]3COP(O)(=S)O[C@H]4[C@H](F)[C@H](n5cnc6c(N)ncnc65)O[C@@H]4COP(O)(=S)O[C@@H]2[C@@H]3F)c(=O)[nH]1 (single isomer, unassigned) [Example 245] | 234
Nc1nc2c(ncn2[C@@H]2O[C@@H]3COP(O)(=S)O[C@H]4[C@H](F)[C@H](n5cnc6c(N)ncnc65)O[C@@H]4COP(O)(=S)O[C@@H]2[C@@H]3F)c(=O)[nH]1 (single isomer, unassigned) [Example 246] | 217
Nc1nc2c(ncn2[C@@H]2O[C@@H]3COP(=O)(O)O[C@H]4[C@H](F)[C@H](n5cnc6c(N)ncnc65)O[C@@H]4COP(O)(=S)O[C@@H]2[C@@H]3F)c(=O)[nH]1 (single isomer, unassigned) [Example 273] | 85
Nc1nc2c(ncn2[C@@H]2O[C@@H]3COP(=O)(O)O[C@H]4[C@H](F)[C@H](n5cnc6c(N)ncnc65)O[C@@H]4COP(O)(=S)O[C@@H]2[C@@H]3F)c(=O)[nH]1 (single isomer, unassigned) [Example 274] | 124
Nc1nc2c(nnn2[C@@H]2O[C@@H]3COP(=O)(S)O[C@H]4[C@H](F)[C@H](n5nnc6c(=O)[nH]cnc65)O[C@@H]4COP(=O)(S)O[C@@H]2C3)c(=O)[nH]1 (single isomer, unassigned) [Example 340] | 306
Nc1nc2c(nnn2[C@@H]2O[C@@H]3COP(=O)(S)O[C@H]4[C@H](F)[C@H](n5nnc6c(=O)[nH]cnc65)O[C@@H]4COP(=O)(S)O[C@@H]2C3)c(=O)[nH]1 (single isomer, unassigned) [Example 341] | 7
Nc1nc2c(nnn2[C@@H]2O[C@@H]3COP(=O)(S)O[C@H]4[C@H](F)[C@H](n5cnc6c(=O)[nH]cnc65)O[C@@H]4COP(=O)(S)O[C@@H]2[C@@H]3F)c(=O)[nH]1 (single isomer, unassigned) [Example 342] | 23
Nc1nc2c(nnn2[C@@H]2O[C@@H]3COP(=O)(S)O[C@H]4[C@H](F)[C@H](n5cnc6c(=O)[nH]cnc65)O[C@@H]4COP(=O)(S)O[C@@H]2[C@@H]3F)c(=O)[nH]1 (single isomer, unassigned) [Example 343] | 255
Nc1nc2c(nnn2[C@@H]2O[C@@H]3COP(=O)(S)O[C@H]4[C@H](F)[C@H](n5nnc6c(=O)[nH]cnc65)O[C@@H]4COP(=O)(S)O[C@@H]2[C@@H]3F)c(=O)[nH]1 (single isomer, unassigned) [Example 344] | 337
Nc1nc2c(nnn2[C@@H]2O[C@@H]3COP(=O)(S)O[C@H]4[C@H](F)[C@H](n5nnc6c(=O)[nH]cnc65)O[C@@H]4COP(=O)(S)O[C@@H]2[C@@H]3F)c(=O)[nH]1 (single isomer, unassigned) [Example 345] | 144
Nc1nc2c(ncn2[C@@H]2O[C@@H]3COP(=O)(O)O[C@H]4[C@H](F)[C@H](n5nnc6c(=O)[nH]cnc65)O[C@@H]4COP(=O)(S)O[C@@H]2[C@@H]3F)c(=O)[nH]1 (single isomer, unassigned) [Example 346] | 182
Nc1nc2c(ncn2[C@@H]2O[C@@H]3COP(=O)(O)O[C@H]4[C@H](F)[C@H](n5nnc6c(=O)[nH]cnc65)O[C@@H]4COP(=O)(S)O[C@@H]2[C@@H]3F)c(=O)[nH]1 (single isomer, unassigned) [Example 347] | 225
